# Reference: US8575128B2, “Methods for transdifferentiation of body tissues” (priority 1999, dated 2013)
# Several values for one entry are separate records, joined by “and”; a condition that tells them apart may be missing. Identical values can stand only once. Entries after “also recorded” stand apart in the source; their conditions may differ. Where no end group is shown, it is not given here.
# Assays:
# [1] = tested on: melanophores and xanthophores; conditions: for Cells containing both melanosomes and pterinosomes (melanophore to xanthophore transdifferentiation), light microscopy: Gomori trichrome stained skin, zinc acetate 7 and 12 days; for Cells containing both melanosomes and pterinosomes (melanophore to xanthophore transdifferentiation), light microscopy / Time on feeding at which the animal died: substance sprinkled on food every other day; for Cells containing both melanosomes and pterinosomes (melanophore to xanthophore transdifferentiation), light microscopy / Colour of the animal by inspection: cGMP 22 days, GMP 67 days; for Identification as transdifferentiation agent by the assay: summary statement; for Direction of chromatophore transdifferentiation from macro observations and photographs of whole animals: fed as in Examples A-C
# Description: Larval Axolotls have an epidermis on a thin basement membrane, under which is a thick collagen layer (green when stained with Gomori trichrome for light microscopy.) Only 3 types of cells are present immediately below and slightly embedded in the collagen layer-(a) fibroblasts, which are generally fusiform and have a characteristic light and ultrastructural appearance, (b) melanophores, which contain numerous round or oval black melanosomes, as well as some premelanosomes, and (c) xanthophores, which, contain organelles known as pterinosomes. These appear as vacuoles in light microscopy and vacuoles with wispy or concentric layered material in electron microscopy. In general, melanosomes are normally found only in melanophores and pterinosomes in xanthophores.
# All Axolotls were 3-5 cm in length at the beginning of the experiment and were obtained from the Indiana University Axolotl Colony, Bloomington, Ind.).
# Temperature was 22 °C with a 12 hour light/12 hour dark
# photoperiod. Water was changed daily before feeding, and when the animals were removed from feeding an hour later. They were fed about every day. Every other day, the experimental substance was sprinkled on the beef or fish pellets. All experimental reagents were obtained from Sigma (St. Louis Mo.). […] For feeding, beef liver was placed on the raised bottom partially in and partially out of the water. This permitted the animal to sense the food in the water but prevented the cGMP sprinkled on the beef from washing away. […] For feeding the animals were transferred to smaller plastic containers (weighing canoes) which have one side sloped. The pellets were placed on the slope, partially in and partially out of the water. This permitted the animal to sense the food in the water but prevented the cGMP sprinkled on the pellet from washing away. Deer Park Spring Water (Breingsville, Pa.) was used exclusively.
# The animals were observed about weekly under an Olympus SZ stereomicroscope and most were photographed prior to sacrifice or shortly (hours) after death. Animals were fixed in 10% Formalin and 4 mm punch biopsies of skin were processed routinely for histology (Gomori Trichrome) by Charles River Laboratories (Wilmington, Mass.). Slides were examined in an Olympus (Woodbury, N.Y.) BX40 microscope.
# Three animals (a control and two GMP fed animals) were biopsied with a 2 mm punch and fixed in Trump=s fixative for 24 hours, and processed routinely for electron microscopy. They were postfixed in 2% osmium tetroxide, dehydrated in a serials of alcohols and embedded in Epon-Araldite (1:1). Processing and photography were performed at the Electron Imaging Facility, Rutger=s University, Piscataway, N.J.
# [2] = tested on: melanocytes; conditions: Dupin et al. 2000; cited from earlier work
# [3] = tested on: human melanoma cell line G-361; test: Transdifferentiation of G-361 melanoma cells in culture; type: cell-based; set-up: Phenotypic changes in the cell population: dose or concentration left out as unconfirmed; conditions: 7 days
# Method: A human melanoma cell line. G-361, was purchased from the American Type Culture Collection (ATCC catalog number CRL-1424, Manassas, Va.) in a cryopreserved state. Upon receipt, the tube containing the frozen cells was rapidly thawed in a 371C water bath by swirling the bottom ⅓ of the tube for less than 2 minutes. All subsequent steps were conducted using standard methods of sterile technique. The cells were transferred to a T-25 flask containing 5 ml of pre-warmed McCoy=s 5A modified medium (Life Technologies, Rockville, Md.) and incubated at 371 C in a humidified CO2 incubator. After approximately 24 hours, the original medium was removed and replaced with fresh medium and the cells allowed to grow until they reached approximately 70-80% confluency with the medium being replaced every 2-3 days as needed. At this point, the cells were subcultured into Leighton tubes at low cell densities using well known typsin-EDTA subculturing techniques. After subculturing, the cells were allowed to re-establish their growth for 48 hours prior to administration of drugs.
# Few cells resembled a normal melanocyte phenotype. […] The majority of the cells appeared to be epithelial in morphology. […] The microscopic phenotypic heterogeneity observed was compatible with karyotypic analysis provided by ATCC showing a heterogeneous population with regards to chromosome number.
# Later, beta-carotene in tetrahydrofuran was added to McCoy=s 5A modified medium to a final concentration of about 33 mg/ml with a final concentration of 0.5% THF. This supplemented medium was added to the Leighton tubes after removal of un-supplemented medium and was replaced every 2 days during the 7 clay experimental period. At the end of 7 days, the cultures were fixed in methanol and the cover slips were Giemsa stained.
# Methods: The melanoma cell line G-361, described in Example 1.4 above was used Guanosine was added to McCoy=s 5A modified medium to a final concentration of 3 mg/ml. This supplemented medium was added to the Leighton tubes after removal of unsupplemented medium and was replaced every 2 days during the 7 day experimental period. At the end of 7 days, the cultures were fixed in methanol and the cover slips were Giemsa stained.
# Methods: The melanoma cells line G-361, described in Example 14 above was used Guanosine was added to McCoy=s 5A modified medium to final concentration of 3 mg/ml. This supplemented medium was added to the Leighton tubes after removal of un-supplemented medium and was replaced every 2 days for 7 days. Beta-carotene in THF was added to McCoy=s 5A modified medium at a final concentration of 33 mg/ml with a final concentration of 0.5% THF. […]
# [4] = tested on: chromatophores; conditions: literature reports (Frost; Thibaudeau and Holder; Bagnara); cited from earlier work
compound,measurement,setting,value
"CC(=O)[O-].CC(=O)[O-].[Zn+2] [Zinc Acetate, reference compound]","Cells containing both melanosomes and pterinosomes (melanophore to xanthophore transdifferentiation), light microscopy",[1],cells with both melanosomes and pterinosomes
same,Time on feeding at which the animal died,[1],7 days and 12 days
same,Identification as transdifferentiation agent by the assay,[1],transdifferentiation agents
"Cl.Cl.Cl.Cl.NCCNCCNCCN [trien, triethylenetetramine tetrahydrochloride]",Direction of chromatophore transdifferentiation from macro observations and photographs of whole animals,[1],transdifferentiate melanophores to xanthophores
O[C@H]1[C@H](O)[C@@H](O)[C@H](O)[C@@H](O)[C@H]1O [myo-inositol],Direction of chromatophore transdifferentiation from macro observations and photographs of whole animals,[1],transdifferentiate melanophores to xanthophores
same,Identification as transdifferentiation agent by the assay,[1],transdifferentiation agents
"Nc1nc2c(ncn2[C@@H]2O[C@@H]3COP(=O)(O)O[C@H]3[C@H]2O)c(=O)[nH]1 [cGMP, guanosine 3′,5′-cyclic monophosphate]","Cells containing both melanosomes and pterinosomes (melanophore to xanthophore transdifferentiation), light microscopy",[1],presence of melanosomes and pterinosomes in several cells
same,Colour of the animal by inspection,[1],lighter by inspection
same,Time on feeding at which the animal died,[1],22 days
same,Identification as transdifferentiation agent by the assay,[1],transdifferentiation agents
"Nc1nc2c(ncn2[C@@H]2O[C@H](COP(=O)(O)O)[C@@H](O)[C@H]2O)c(=O)[nH]1 [GMP, guanosine 5′-monophosphate]","Cells containing both melanosomes and pterinosomes (melanophore to xanthophore transdifferentiation), light microscopy",[1],clear evidence of transdifferentiation by the presence of cells containing both pterinosomes and melanosomes; also recorded: transdifferentiating from a melanocyte into a xanthophore
same,Colour of the animal by inspection,[1],markedly lighter by inspection and had a yellow hue
same,"Cells and organelles in skin, electron microscopy",[1]; fed 67 days,"many cells in which both melanosomes and pterinosomes were, present; also recorded: organelles which appeared to be hybrids of melanosomes and pterinosomes"
same,Identification as transdifferentiation agent by the assay,[1],transdifferentiation agents
"Endothelian 3: Factor reported by Dupin et al. to induce conversion of melanocytes into glial cells (CTCFTYKDKECVYYCHLDIIW; ends and bridges not checked; cysteine pairing not given here; UniProt P14138 97-117, looked up)",Conversion of melanocytes into glial cells,[2],induce the conversion of melanocytes into glial cells
Nc1cc[nH]c(=O)n1 [cytosine],Direction of chromatophore transdifferentiation from macro observations and photographs of whole animals,[1],transdifferentiates xanthophores to melanophores
Nc1nc2c(ncn2[C@@H]2O[C@H](CO)[C@@H](O)[C@H]2O)c(=O)[nH]1 [guanosine],Direction of chromatophore transdifferentiation from macro observations and photographs of whole animals,[1],transdifferentiate melanophores to xanthophores
same,Phenotypic changes in the cell population,[3]; Giemsa stain,many cells with an increased nuclear to cytoplasmic ratio; also recorded: increased number of triangular cells consistent with neural phenotypes
same,Transdifferentiation of Axolotl chromatophores,[4],acted as a transdifferentiation agent; also recorded: transdifferentiate from one pigmented cell type to another
"CC1=C(/C=C/C(C)=C/C=C/C(C)=C/C=C/C=C(C)/C=C/C=C(C)/C=C/C2=C(C)CCCC2(C)C)C(C)(C)CCC1 [Beta-carotene, beta-carotene]",Cell death compared with control cultures,[3]; about 33 mg/ml in 0.5% THF,a large segment of the starting population died
same,Mitotic figures in remaining cell population,[3]; about 33 mg/ml in 0.5% THF,no mitotic figures observed
same,Morphology of remaining cells,"[3]; about 33 mg/ml in 0.5% THF, Giemsa stain","most had triangular morphology and a large nucleus, consistent with neural cells, or were fusiform in shape, consistent with neuroglial or neurilemmal (Schwann) cells"
